Type in all cases: cell-based
The target in data set [1] is T1, GGEc (Drosophila melanogaster, UniProt P34021).
T1 construct: expressed in transfected cells; host or cells: 293 cells
T1 sequence (P34021 329-878): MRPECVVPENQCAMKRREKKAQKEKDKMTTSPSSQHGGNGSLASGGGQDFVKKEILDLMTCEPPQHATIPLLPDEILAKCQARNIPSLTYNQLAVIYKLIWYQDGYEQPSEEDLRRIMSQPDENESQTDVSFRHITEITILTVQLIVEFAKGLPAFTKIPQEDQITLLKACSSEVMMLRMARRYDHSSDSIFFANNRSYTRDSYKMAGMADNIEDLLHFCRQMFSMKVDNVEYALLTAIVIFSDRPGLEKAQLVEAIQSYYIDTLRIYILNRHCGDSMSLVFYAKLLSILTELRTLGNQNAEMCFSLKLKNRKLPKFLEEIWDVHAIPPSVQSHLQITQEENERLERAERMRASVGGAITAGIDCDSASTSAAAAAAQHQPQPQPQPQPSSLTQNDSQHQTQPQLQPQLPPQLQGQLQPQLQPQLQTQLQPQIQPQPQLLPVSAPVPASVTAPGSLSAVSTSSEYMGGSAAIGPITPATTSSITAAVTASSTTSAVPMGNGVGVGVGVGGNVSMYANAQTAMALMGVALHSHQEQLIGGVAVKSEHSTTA
The experiment in a line: Induction of GRE reporter G4M-77CO by chimeric receptor GGEc in 293 cells. Conditions: for fold induction: 293 cells, reporter G4M-77CO, normalized to hGH, SD in parentheses. An excerpt:
I choose to determine if the ligand-binding domain of DHR23a could be used to regulate the DNA-binding and transactivation domains of the mammalian glucocorticoid receptor for the following reasons. First, in contrast to DHR23α, high affinity DNA-binding sites for the GR have been identified (M. Beato, Cell 56, 335 [1989]) and reporter genes containing these sites are very strongly regulated. Thus, the sensitivity of our assays could be increased. Secondly, these chimeric receptors could be utilized to selectively regulate endogenous genes in mammalian cells in response to ecdysteroids. I constructed a chimeric gene, GGEc, in which the sequences encoding the ligand-binding domain of the GR were replaced with that of DHR23α (Fig. 4A). […] However, expression of the GRE-containing reporter gene was induced more than 700 fold by GGEc in muristerone-treated cells.

The target in data set [2] is T2, VGEc (Drosophila melanogaster, UniProt P34021).
T2 construct: expressed in transfected cells; host or cells: 293 cells
T2 sequence (P34021 329-878): T1 sequence (P34021 329-878)
The experiment in a line: Induction of GRE reporter G4M-77CO by chimeric receptor VGEc in 293 cells. The following applies: normalized to hGH, SD in parentheses. From the text:
(§1) Finally, I determined if the activity of DHR23α fusion proteins could be further enhanced by inclusion of a potent viral transactivation domain. I constructed VGEc and VLxEc fusion genes by replacing a portion of the GR N-terminal activation domain in GGEc and GLxEc, respectively, with the herpes virus VP16 acidic activation domain (I. Sadowski et al., […]. 335, 563 [1988]; D. J. Cousens, R. Greaves, C. R. Coding, and P. O'Hare, EMBO J. 8, 2337 [1989]) (Fig. 4A). In transfected cells, these proteins accumulated to similar levels as derivatives lacking the VP16 activation domain (Fig. 4B). Both VGEc and VLxEc acted in an ecdysteroid-dependent fashion to induce activity of the appropriate reporter gene (Tables 1 and 2). However, the activity of VGEc and VLxEc was 5 and 10 fold greater than GGEc and GLxEc, respectively (M..A. Labow, S.B. Baim, T. Shenk, and A. J. Levine, Mol. and Cell. Biol. 10, 3343 [1990]). Thus, the DHR23α ligand-binding domain can be used to regulate the activities of viral, mammalian and bacterial DNA-binding or transactivation domains.

Data set [3] relates to X4C-33CO. The experiment in a line: Lex-operator reporter X4C-33CO, control effector plasmid without receptor cDNA. Conditions: SD in parentheses. An excerpt:
(§2) Such fusion constructs are expected to be useful in regulating the expression of exogenous genes introduced into transgenic mammals or mammalian cells. I next determined if the DHR23α ligand-binding domain could be used to regulate the activity of a DNA-binding domain not normally expressed in mammalian cells. I constructed the chimeric gene GLxEc by replacing the sequences coding for the GR DNA-binding domain in the GGEc fusion with those encoding the DNA-binding domain of the Escherichia coli LexA repressor (J. W. Little and S. A. Hill, Proc. Natl. Acad. Sci. U.S.A. 82, 2301 [1985]) (Fig. 4). A reporter gene, X4C-33CO was constructed that contains 4 copies of a 26-bp lex operator (R. Brent and M. Ptashne, Nature 312, 612 [1984]) at position -33 of the CMV promoter. GLxEc had no effect on the expression of a OC-33CO, a reporter gene lacking the lex operator (Fig. 6B).
(§3) Illustrated in Table 2 is the transcriptional activation by receptor-LexA fusion proteins. Effector plasmids encoding the indicated receptor proteins were transfected with a reporter gene either containing (X4C-33CO) or lacking (OC-33CO) lex-operators. […] The cells were incubated either with (+) or without (-) muristerone A. The fold induction was determined as described previously; the standard deviations are shown in parenthesis.

For data set [4], the target named is T3, GXG (Rattus norvegicus, UniProt P06536).
T3 construct: expressed in transfected cells
T3 sequence (P06536 528-795): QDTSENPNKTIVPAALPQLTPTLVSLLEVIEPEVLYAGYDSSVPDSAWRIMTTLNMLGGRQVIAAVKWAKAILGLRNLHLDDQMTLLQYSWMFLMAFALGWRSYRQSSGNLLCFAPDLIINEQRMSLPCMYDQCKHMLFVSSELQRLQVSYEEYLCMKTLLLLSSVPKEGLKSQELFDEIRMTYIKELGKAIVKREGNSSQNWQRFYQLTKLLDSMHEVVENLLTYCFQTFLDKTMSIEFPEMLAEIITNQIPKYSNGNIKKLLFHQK
The experiment in a line: Lex-operator reporter X4C-33CO with GXG. Conditions: receptor GXG, SD in parentheses.
Excerpt: as §2, §3

The target in data set [5] is T4, VXEc (Drosophila melanogaster, UniProt P34021).
T4 construct: expressed in transfected cells
T4 sequence (P34021 329-878): T1 sequence (P34021 329-878)
The experiment in a line: Lex-operator reporter X4C-33CO with VXEc. Conditions: receptor VXEc, SD in parentheses.
Excerpt: as §1
(§4) Illustrated in Table 2 is the transcriptional activation by receptor-LexA fusion proteins. […] The cells were incubated either with (+) or without (-) muristerone A. The fold induction was determined as described previously; the standard deviations are shown in parenthesis.

In data set [6] the target is T5, GXEc (Drosophila melanogaster, UniProt P34021).
T5 construct: expressed in transfected cells
T5 sequence (P34021 329-878): T1 sequence (P34021 329-878)
The experiment in a line: Reporter OC-33CO lacking lex-operators with GXEc. The following applies: receptor GXEc, SD in parentheses.
Excerpt: as §2, §3

In data set [7] the target is T4, VXEc. The experiment in a line: Reporter OC-33CO lacking lex-operators with VXEc. Conditions: receptor VXEc, SD in parentheses.
Excerpt: as §1, §4

The target in data set [8] is EcEcEc (Drosophila melanogaster, UniProt P34021). The experiment in a line: Induction of GRE reporter G4M-77CO by EcEcEc (DHR23α) in 293 cells. The following applies: receptor EcEcEc, normalized to hGH, SD in parentheses, 2880 min. Also noted: To isolate the full-length DHR23α clones; expressed in transfected cells; host or cells: human 293 cells.
EcEcEc, sequence (P19793 whole entry): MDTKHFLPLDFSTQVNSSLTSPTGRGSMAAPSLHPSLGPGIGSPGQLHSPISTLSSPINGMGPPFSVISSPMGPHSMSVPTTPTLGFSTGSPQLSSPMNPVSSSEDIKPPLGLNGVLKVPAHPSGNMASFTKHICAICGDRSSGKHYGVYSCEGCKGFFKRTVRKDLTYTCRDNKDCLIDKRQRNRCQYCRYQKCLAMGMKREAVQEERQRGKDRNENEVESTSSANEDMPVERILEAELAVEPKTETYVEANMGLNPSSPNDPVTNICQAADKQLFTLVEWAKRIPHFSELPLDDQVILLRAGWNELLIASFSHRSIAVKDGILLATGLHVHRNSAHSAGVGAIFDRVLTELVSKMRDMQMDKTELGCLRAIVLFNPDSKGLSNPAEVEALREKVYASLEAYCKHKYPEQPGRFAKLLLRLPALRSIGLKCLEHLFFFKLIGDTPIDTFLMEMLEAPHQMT
EcEcEc, sequence (P34021 whole entry): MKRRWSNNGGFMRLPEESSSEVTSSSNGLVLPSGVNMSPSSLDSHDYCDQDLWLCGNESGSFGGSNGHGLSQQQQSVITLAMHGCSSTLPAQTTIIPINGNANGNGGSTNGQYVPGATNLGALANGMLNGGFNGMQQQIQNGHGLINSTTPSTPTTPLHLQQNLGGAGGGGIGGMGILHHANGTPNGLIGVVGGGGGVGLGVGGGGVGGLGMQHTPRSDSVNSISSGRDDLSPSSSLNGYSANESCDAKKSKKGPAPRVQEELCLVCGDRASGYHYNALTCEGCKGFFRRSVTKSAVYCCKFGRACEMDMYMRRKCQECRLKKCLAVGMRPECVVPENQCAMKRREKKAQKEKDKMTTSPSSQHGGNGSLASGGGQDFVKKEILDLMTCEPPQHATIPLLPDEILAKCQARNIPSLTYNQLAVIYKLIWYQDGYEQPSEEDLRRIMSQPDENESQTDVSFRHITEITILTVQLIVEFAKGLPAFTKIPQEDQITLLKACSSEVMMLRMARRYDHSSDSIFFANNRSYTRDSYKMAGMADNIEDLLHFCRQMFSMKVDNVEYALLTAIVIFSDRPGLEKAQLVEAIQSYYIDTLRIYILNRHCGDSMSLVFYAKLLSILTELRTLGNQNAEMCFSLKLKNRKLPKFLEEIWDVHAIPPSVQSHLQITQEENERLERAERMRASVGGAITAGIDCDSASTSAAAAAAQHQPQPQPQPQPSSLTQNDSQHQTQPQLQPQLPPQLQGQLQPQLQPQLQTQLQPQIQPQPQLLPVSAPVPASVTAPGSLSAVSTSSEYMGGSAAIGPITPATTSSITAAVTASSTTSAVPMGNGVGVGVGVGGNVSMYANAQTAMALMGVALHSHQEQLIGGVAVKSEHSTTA
Protocol: "G" and "Ec" refer to the glucocorticoid receptor and DHR23α, respectively.
293 cells were transfected with effector plasmids encoding the indicated receptor proteins and the reporter gene G4M-77CO. These transfected cells were incubated either without added hormone (-), with muristerone A (M) or with dex (D).

In the case of `CC(C)CCC(O)[C@](C)(O)[C@H]1CC[C@@]2(O)C3=CC(=O)C4(O)CC(O)C(O)C[C@]4(C)[C@H]3C(O)C[C@]12C` (some centres unmarked) [muristerone A, 2,3,5,11,14,20,22-Heptahydroxy-7-cholesten-6-one], the fold induction result in data set [1] is “more than 700 fold”; in data set [1] (listed as M) it was 798 (57) fold; in data set [2], 3117 (240) fold; in data set [3], 1.1 (0.3) fold; in data set [4], 1.1 (0.2) fold; in data set [4] (listed as muristerone) it was “not induced”. Moreover, the fold induction in data set [5] is reported as 563 (61) fold; in data set [6], 0.9 (0.3) fold; in data set [7], 1.0 (0.2) fold; in data set [8], 0.9 (0.2) fold. Moreover, the “relative efficacies of ecdysteroids as agonists for the chimeric receptor” value in data set [1] (GRE reporter G4M-77CO) is given as “strong”.

As a reminder, the fold induction is the signal under treatment as a multiple of the control signal.
